Patent US4898943A, “Tricyclic triazolopyrimidine derivatives” (Daiichi Seiyaku Co., Ltd., priority 1987, dated 1990)

How the values were obtained:
Acute toxicity test = conditions: mouse, in vivo, po; p.o. in mice
PCA reaction = assay: PCA test (48-hour passive cutaneous anaphylaxis), oral administration; assay type: in vivo; conditions: Rattus norvegicus, 10 mg/kg orally, 30 minutes before antigen challenge, male Sprague-Dawley rats
Method: Each of Sprague-Dawley female rats weighing 170 to 250 g (CRJ-CD(SD), Charles River Japan Inc.) was intramuscularly administered with 5 mg/kg-body weight of egg albumin dissolved in saline, and then 1 ml of a suspension of Bordetella pertussis vaccine (2×10^10 organism) in saline was administered intraperitoneally to the rat. On day 10, 3,000 larvae animal of Nippostrongylus brasiliensis were subcutaneously administered to the rats. On day 24, blood was drawn from the rats to obtain an antiserum.
The antiserum was diluted with saline so as to provide a blue spot having a diameter of about 10 mm in the following control group.
Male sprague-Dawley rats weighing about 180 g (5 rats per group) were sensitized by injecting 0.05 ml of the diluted antiserum into the shaved dorsal skin. Fourty-eight hours later, 1 ml of saline containing 0.5% Evans blue and 5 mg of egg albumin was administered to each of the rats via a tail vein. After 30 minutes, the rats were sacrificed by decapitation. The dorsal skin was removed, and the amount of the dye in the blue spot area was measured in accordance with the method of Katayama et al., Microbiol. Immunol., Vol. 22, 89-101 (1978).
Ten milligrams of the test compound was suspended in 5 ml of a 0.5% CMC aqueous solution, and the suspension was orally administered to each of the rats in an amount of 10 mg/kg 30 minutes before the antigen challenge. On the other hand, a control group received only a 0.5% CMC solution.
The inhibitory activity on the PCA reaction in the treated group was calculated by the following equation: [formula] wherein V represents a mean value of the dye amount in the blue spot area in the control group; and W represents a mean value of the dye amount in the blue spot area in the treated group.

| SMILES | LD50 (Acute toxicity test) [mg/kg] | inhibition at 10 mg/kg (PCA reaction) [%] |
| --- | --- | --- |
| O=c1c2[nH]nnc2nc2sc(CCC3CCCCCC3)nn12 [Example 9] | > 4000 | 88 |
| O=c1c2[nH]nnc2nc2sc(CCCC3CCCC3)nn12 [Example 3] | > 4000 | 91 |
| O=c1c2[nH]nnc2nc2sc(CC3CCCCC3)nn12 [Example 4] |  | 77 |
| O=c1c2[nH]nnc2nc2sc(CCC3CCCC3)nn12 [Example 2] | 2000 to 4000 | 62 |
| O=c1c2[nH]nnc2nc2sc(CCCC3CCCCC3)nn12 [Example 5] | > 4000 |  |
| O=c1c2[nH]nnc2nc2sc(CCC3CCCCC3)nn12 [Example 1, 6-(2-Cyclohexylethyl)-[1,3,4]thiadiazolo-[3,2-a][1,2,3]triazolo[4,5-d]pyrimidin-9-(1H)-one] | > 4000 | 81 |
